This note sets out measurements from patent US10195189B2, “2-phenethenyltetrahydro isoquinolines useful as anti-HIV compounds” (priority 2014, dated 2019).

As a reminder, the EC50 is the concentration needed to bring the measured effect to its halfway point. A higher EC50 goes with a need for much substance.

For this test, the system named is HIV-1 NL4-3 viral clone expressing Renilla luciferase. Kind of test: microbe, parasite or virus in culture. Format: cell-based. Particulars: Human immunodeficiency virus 1, NL43, MT2, 96 h. The procedure:
Protocol for MT-2 Spread Assay
The present assay was used to screen candidate antiviral compounds by quantification of virus spread and production over several rounds of infection in vitro. MT-2, a HIV-1 permissive human T-cell line, was seeded in microtiter plates and was simultaneously treated with serially diluted compound and inoculated with a HIV-1 NL4-3 viral clone engineered to express Renilla luciferase in place of Net Following treatment, the culture was incubated for 96 hours. After the incubation, media was collected and used to estimate relative infectivity on the indicator cell line, TZM-bl. Additionally, viral spread was quantified by measuring luciferase activity via a commercially available luciferase substrate. In parallel, MT-2 cells were seeded and inoculated with mock virus in the presence of serially diluted compound. Compound toxicity was quantified 96 hours after treatment with AlamarBlue.
MT-2 (NIH Aids reagent program 237) cells were grown and maintained in an incubator at 37° C. with 5% CO2 using a basal medium of RPMI-1640 supplemented with 10% FBS. Cells were seeded in 100 μl at 2×10^4 cells/well in white walled 96-well microtiter plates. Candidate compounds were 3-fold serially diluted in the appropriate solvent. Solvent without compound was used as a no drug reference. Cells were inoculated at a multiplicity of 0.027 with an HIV-1 NL4-3 virus stock engineered to express Renilla luciferase in place of Net Diluted virus stock was first added to serially diluted compound. Compound and virus were delivered to cells in an equal volume (100 μl) and treated cultures were returned to the incubator for 96 hours. In parallel, plates for cytotoxicity estimates were prepared in the same way except cells were plated in clear walled 96-well microtiter plates and were mock infected.
At 96 hours post infection, 100 μl virus containing culture supernatant was collected from the treated and infected cultures and serially diluted in DMEM supplemented with 10% FBS, 1% sodium pyruvate, and 20 μg/ml DEAE dextran. One day prior, TZM-bl (ATCC PTA-5659) were cultured in basal medium of DMEM supplemented with 10% FBS and 1% sodium pyruvate and seeded at 7.5×10^3 cells/well in black walled 96-well microtiter plates. Diluted virus containing culture supernatant was transferred to TZM-bl cultures and incubated for 48 hours at 37° C. with 5% CO2. Infected TZM-bl cultures were fixed for 5 minutes with a 1% formaldehyde/0.2% gluteraldehyde/PBS solution then washed three times with PBS. Fixed cultures were incubated at 37° C. for 25 minutes with a 200 μg/ml MUG (4-Methylumbelliferyl β-D-[…])/DMEM solution. The reaction was stopped with an equal volume of 1M sodium carbonate and read at 360, 449 nm on fluorescence plate reader (Biotek).
At 96 hours post infection, 100 μl of culture supernatant was removed from the treated and infected cultures and EnduRen live cell substrate (Promega) was added at a final concentration 1.3 μg/ml. Cells were incubated for 1.5 hours at 37° C. with 5% CO2 then read on a luminescence plate reader (Biotek).
For all assays, data was imported into Accelrys Assay Explorer 3.3. In Assay Explorer, % inhibition (antiviral or cytotoxicity) was calculated using the solvent control as a reference by the following equation: 1−(SignalCompound/SignalReference). The % Inhibition and compound concentration data was fitted using the following 4-parameter logistic model (Assay Explorer model 42):
[formula] where X is compound concentration, Y is % inhibition, D is the maximum % Inhibition (constrained to 100%), C is IC50 value or inflection point, B is the hill slope, and A is the minimum % inhibition (constrained to 0%). The IC50 value is reported as the EC50 or CC50 depending on the assay endpoint. EC50 represents the effective concentration at which virus replication is inhibited by 50 percent. CC50 represents the concentration that results in the death of 50 percent of the host cells. […]
Compound `COc1cc2c(cc1OCc1ccccc1)CCNC2c1cc(OCc2ccccc2)c(OC)cc1C` (centres unmarked) [AY, 6-(Benzyloxy)-1-(5-(benzyloxy)-4-methoxy-2-methylphenyl)-7-methoxy-1,2,3,4-tetrahydroisoquinoline] displayed an EC50 of 4880 nM. Then `CCN1CCN(c2ccc(/C=C/C3NCCc4cc(OCc5ccccc5)c(OC)cc43)cc2)CC1` (centres unmarked) [DO, (E)-6-(benzyloxy)-1-(4-(4-ethylpyrazin-1-yl)styryl)-7-methoxy-1,2,3,4-tetrahydroisoquinoline], with 496 nM. Then `COc1cc2c(cc1OCc1ccccc1)CCNC2/C=C/c1cc2ccccc2n1C(=O)OC(C)(C)C` (centres unmarked) [CH, tert-Butyl 2-[(E)-2-(6-benzyloxy-7-methoxy-1,2,3,4-tetrahydroisoquinolin-1-yl)vinyl]indole-1-carboxylate], with 580 nM; and `COc1cc2c(cc1OCc1ccccc1)CCNC2/C=C/c1ccc2c(c1)OCC2` (centres unmarked) [EG, 6-Benzyloxy-1-[(E)-2-(2,3-dihydrobenzofuran-6-yl)vinyl]-7-methoxy-1,2,3,4-tetrahydroisoquinoline], with 900 nM. To `COc1ccc(/C=C/C2NCCc3cc(OCc4ccccc4)c(OC)cc32)cc1F` (centres unmarked) [BF] belongs 1020 nM. `COc1cc2c(cc1OCc1ccccc1)CCNC2/C=C/c1cc2c(cc1C)OCCO2` (centres unmarked) [BC, 6-Benzyloxy-7-methoxy-1-[(E)-2-(7-methyl-2,3-dihydro-1,4-benzodioxin-6-yl)vinyl]-1,2,3,4-tetrahydroisoquinoline]: the EC50 was 27.1 nM. As to `COc1ccc(/C=C/C2NCCc3cc(OCc4ccccc4)c(OC)cc32)c(C)c1` (centres unmarked) [Example AG, 6-benzyloxy-7-methoxy-1-[(E)-2-(4-methoxy-2-methyl-phenyl)vinyl]-1,2,3,4-tetrahydroisoquinoline], the EC50 was found to be 77.1 nM.

Take `COCCCCOc1cc(OC)ccc1/C=C/C1NCCc2cc(OCc3ccccc3)c(OC)cc21` (centres unmarked) [Example AI, (E)-6-(benzyloxy)-7-methoxy-1-(4-methoxy-2-(4-methoxybutoxy)styryl)-1,2,3,4-tetrahydroisoquinoline]: the EC50 was 1500 nM. On to `COc1cccc(-c2ncc(/C=C/C3NCCc4cc(OCc5ccccc5)c(OC)cc43)cn2)c1` (centres unmarked) [DN], for which the midpoint of the response, the EC50, lay at 2400 nM. Then `COc1cc2c(cc1OCc1ccccc1)CCNC2/C=C/c1ccc2c(c1)CCCO2` (centres unmarked) [CB, 6-Benzyloxy-1-[(E)-2-chroman-6-ylvinyl]-7-methoxy-1,2,3,4-tetrahydroisoquinoline], with 1550 nM; and `COc1cc2c(cc1OCc1ccccc1)CCNC2/C=C/c1cccc(-c2ncco2)c1` (centres unmarked) [EC, 2-[3-[(E)-2-(6-Benzyloxy-7-methoxy-1,2,3,4-tetrahydroisoquinolin-1-yl)vinyl]phenyl]oxazole], with 930 nM. Then `COc1cc2c(cc1OCc1ccccc1)CCNC2/C=C/c1cccc2c1OCCC2` (centres unmarked) [CF, 6-Benzyloxy-1-[(E)-2-chroman-8-ylvinyl]-7-methoxy-1,2,3,4-tetrahydroisoquinoline], with 490 nM. To `COc1cc2c(cc1OCc1ccccc1)CCNC2c1ccccc1CNC(=O)OC(C)(C)C` (centres unmarked) [AZ, tert-Butyl N-[[2-(6-benzyloxy-7-methoxy-1,2,3,4-tetrahydroisoquinolin-1-yl)phenyl]methyl]carbamate] belongs 2770 nM; to `COc1cc2c(cc1OCc1ccccc1)CCNC2/C=C/c1cccc(C(=O)O)c1` (centres unmarked) [ER, 3-[(E)-2-(6-benzyloxy-7-methoxy-1,2,3,4-tetrahydroisoquinolin-1-yl)vinyl]benzoic acid], 10000 nM.

Take `COc1cc(C)c(/C=C/C2NCCc3cc(OCc4ccccc4)c(OC)cc32)cc1C` (centres unmarked) [BV, 6-Benzyloxy-7-methoxy-1-[(E)-2-(4-methoxy-2,5-dimethyl-phenyl)vinyl]-1,2,3,4-tetrahydroisoquinoline]: the response was half-maximal at 304 nM (EC50). `COc1cc(C)c(/C=C/C2c3cc(OC)c(OCc4ccccc4)cc3CCN2C(=O)NC(C)(C)C)cc1OCc1ccccc1` (centres unmarked) [Example O, 6-benzyloxy-1-[(E)-2-(5-benzyloxy-4-methoxy-2-methyl-phenyl)vinyl]-N-tert-butyl-7-methoxy-3,4-dihydro-1H-isoquinoline-2-carboxamide]: it took 2010 nM to reach a half-maximal effect (EC50). `COc1cc2c(cc1OCc1ccccc1)CCNC2/C=C/c1cc(OCC(C)(C)C)c(OC)cc1C` (centres unmarked) [BX, 6-Benzyloxy-1-[(E)-2-[5-(2,2-dimethylpropoxy)-4-methoxy-2-methyl-phenyl]vinyl]-7-methoxy-1,2,3,4-tetrahydroisoquinoline] displayed an EC50 of 350 nM.

In turn, `CCCCOc1cc(/C=C/C2NCCc3cc(OCc4ccccc4)c(OC)cc32)c(C)cc1OC` (centres unmarked) [BL, 6-Benzyloxy-1-[(E)-2-(5-butoxy-4-methoxy-2-methyl-phenyl)vinyl]-7-methoxy-1,2,3,4-tetrahydroisoquinoline] showed an EC50 of 52 nM. This EC50 lies about 6.7-fold lower than the previous one. To `COc1cc2c(cc1OCc1ccccc1)CCNC2/C=C/c1ccc(OC)c2ccoc12` (centres unmarked) [Example AO, 6-Benzyloxy-7-methoxy-1-[(E)-2-(4-methoxybenzofuran-7-yl)vinyl]-1,2,3,4-tetrahydroisoquinoline] belongs 1130 nM.

As to `COc1cc2occc2cc1/C=C/C1NCCc2cc(OCc3ccccc3)c(OC)cc21` (centres unmarked) [EB, 6-Benzyloxy-7-methoxy-1-[(E)-2-(6-methoxybenzofuran-5-yl)vinyl]-1,2,3,4-tetrahydroisoquinoline], the EC50 is 300 nM. To `COc1cc2c(cc1OCc1ccccc1)CCNC2/C=C/c1cc(OCc2ccccc2)ccc1C` (centres unmarked) [Example AD, 6-benzyloxy-1-[(E)-2-(5-benzyloxy-2-methyl-phenyl)vinyl]-7-methoxy-1,2,3,4-tetrahydroisoquinoline] belongs 84 nM; to `CCn1cc(/C=C/C2NCCc3cc(OCc4ccccc4)c(OC)cc32)cn1` (centres unmarked) [Example AL, 6-Benzyloxy-1-[(E)-2-(1-ethylpyrazol-4-yl)vinyl]-7-methoxy-1,2,3,4-tetrahydroisoquinoline], 2950 nM; to `COc1cc2c(cc1OCc1ccccc1)CCNC2/C=C/c1ccccc1C(=O)O` (centres unmarked) [ES, 2-[(E)-2-(6-benzyloxy-7-methoxy-1,2,3,4-tetrahydroisoquinolin-1-yl)vinyl]benzoic acid], 8620 nM. `COc1cc2c(cc1OCc1ccccc1)CCNC2/C=C/c1cn(C)c2ncccc12` (centres unmarked) [DP] came in with a half-maximal effective concentration (EC50) of 15 nM. Compared with the last compound, the EC50 is about 570-fold lower.

Regarding `COc1ccc(/C=C/C2NCCc3cc(OCc4ccccc4)c(OC)cc32)cc1OCc1ccccc1` (centres unmarked) [Example AB, 6-benzyloxy-1-[(E)-2-(3-benzyloxy-4-methoxy-phenyl)vinyl]-7-methoxy-1,2,3,4-tetrahydroisoquinoline], the EC50 was 146 nM. Then `CCOC(=O)CCCOc1cc(/C=C/C2NCCc3cc(OCc4ccccc4)c(OC)cc32)ccc1OC` (centres unmarked) [CV, Ethyl 4-[5-[(E)-2-(6-benzyloxy-7-methoxy-1,2,3,4-tetrahydroisoquinolin-1-yl)vinyl]-2-methoxy-phenoxy]butanoate], with 100 nM. In turn, `CCCCOc1ccc(/C=C/C2NCCc3cc(OCc4ccccc4)c(OC)cc32)cc1OC` (centres unmarked) [BD, 6-Benzyloxy-1-[(E)-2-(4-butoxy-3-methoxy-phenyl)vinyl]-7-methoxy-1,2,3,4-tetrahydroisoquinoline] registered an EC50 of 408 nM.

For `COc1ccc(OC)c(/C=C/C2NCCc3cc(OCc4ccccc4)c(OC)cc32)c1` (centres unmarked) [EK, 6-Benzyloxy-1-[(E)-2-(2,5-dimethoxyphenyl)vinyl]-7-methoxy-1,2,3,4-tetrahydroisoquinoline], the EC50 worked out at 380 nM. Compound `COc1cc2c(cc1OCc1ccccc1)CCNC2/C=C/c1ccccc1NC(=O)OC(C)(C)C` (centres unmarked) [CW, tert-Butyl N-[2-[(E)-2-(6-benzyloxy-7-methoxy-1,2,3,4-tetrahydroisoquinolin-1-yl)vinyl]phenyl]carbamate] had an EC50 of 5400 nM.
